Source: patent US20240342320A1, “POLYPEPTIDE TARGETING INTEGRIN ALPHA 6 AND USE THEREOF” (GUANGZHOU GENBIONOVA MEDICAL TECHNOLOGY CO., LTD., priority 2021, published 2024)
Where two headings read alike, the source gives them in different places. Positions of bridges follow the written chain, without caps; N, C: chain ends. Non-standard residues stand in square brackets, D forms with d. Residues, ends and D or L forms follow the SMILES beside them. Primed or numbered codes have the meaning given here. No end group written: not given here. FITC′ = not defined here; PEG4′ = not defined here

Legend:
[1] = system: tumor cells with high integrin α6 expression; experiment: Flow cytometry affinity assay to tumor cells with high integrin α6 expression; format: cell-based, human
Protocol: (§1) The expression of integrin α6 and β4 in human hepatoma cells HCCLM3, human hepatoma cells Huh-7, human hepatoma cells Hep3B, human nasopharyngeal carcinoma cells S18 and human breast cancer cells MDA-MB-231 were detected by flow cytometry. […] Integrin β4 is expressed in HCCLM3, S18 and MDA-MB-231 cells (FIG. 3F, FIG. 3G, FIG. 3I, FIG. 3J). […] Each cell had 3 duplicate wells. • 2) 2 μl of 1 mM RWYD-PEG4-K-FITC (structural formula shown in FIG. 1B, referred to as RD) or CRWYDENAC-PEG4-K-FITC (referred to as RWY) was added into cells, mixed well, and incubate in an incubator at 37° C. for 2 hours. • 3) The culture medium containing polypeptides was absorbed and removed, the cells were washed with PBS for 3 times, 500 μl/time. • 4) The cells were digested with trypsin, resuspended with medium and centrifuged at 300 g for 5 minutes. • 5) The supernatant was discarded and cell precipitation was preserved, and the cells were resuspended with 500 μl saline and placed into the flow tube. • 6) The FITC channel was detected by flow machine and the results were analyzed by CytExpert.
(§2) RWYD-PEG4 forms dimers or polyploids via lysine (K) ligations. Flow cytometry was used to detect expression of integrin α6 in tumor cells. […] The specific operation of affinity assay of tumor cells to RD2 is similar to that of “affinity assay of tumor cells to RD”.

Hep3B cells [2] = experiment: Affinity of RD/RD2 to Hep3B cells (no integrin α6 expression) by flow cytometry; format: cell-based, human; details: FITC probes, 37° C., 2 hours
Protocol: as §1, §2

integrin α6β4 [3] = molecular target: T1, integrin α6β4 (Homo sapiens, UniProt P23229); experiment: Microscale thermophoresis (MST) affinity to integrin α6β4; format: binding; details: for Affinity relative to RWY: relative to CRWYDENAC (RWY) = 1.00
T1 sequence (P23229 24-1050 limits assumed): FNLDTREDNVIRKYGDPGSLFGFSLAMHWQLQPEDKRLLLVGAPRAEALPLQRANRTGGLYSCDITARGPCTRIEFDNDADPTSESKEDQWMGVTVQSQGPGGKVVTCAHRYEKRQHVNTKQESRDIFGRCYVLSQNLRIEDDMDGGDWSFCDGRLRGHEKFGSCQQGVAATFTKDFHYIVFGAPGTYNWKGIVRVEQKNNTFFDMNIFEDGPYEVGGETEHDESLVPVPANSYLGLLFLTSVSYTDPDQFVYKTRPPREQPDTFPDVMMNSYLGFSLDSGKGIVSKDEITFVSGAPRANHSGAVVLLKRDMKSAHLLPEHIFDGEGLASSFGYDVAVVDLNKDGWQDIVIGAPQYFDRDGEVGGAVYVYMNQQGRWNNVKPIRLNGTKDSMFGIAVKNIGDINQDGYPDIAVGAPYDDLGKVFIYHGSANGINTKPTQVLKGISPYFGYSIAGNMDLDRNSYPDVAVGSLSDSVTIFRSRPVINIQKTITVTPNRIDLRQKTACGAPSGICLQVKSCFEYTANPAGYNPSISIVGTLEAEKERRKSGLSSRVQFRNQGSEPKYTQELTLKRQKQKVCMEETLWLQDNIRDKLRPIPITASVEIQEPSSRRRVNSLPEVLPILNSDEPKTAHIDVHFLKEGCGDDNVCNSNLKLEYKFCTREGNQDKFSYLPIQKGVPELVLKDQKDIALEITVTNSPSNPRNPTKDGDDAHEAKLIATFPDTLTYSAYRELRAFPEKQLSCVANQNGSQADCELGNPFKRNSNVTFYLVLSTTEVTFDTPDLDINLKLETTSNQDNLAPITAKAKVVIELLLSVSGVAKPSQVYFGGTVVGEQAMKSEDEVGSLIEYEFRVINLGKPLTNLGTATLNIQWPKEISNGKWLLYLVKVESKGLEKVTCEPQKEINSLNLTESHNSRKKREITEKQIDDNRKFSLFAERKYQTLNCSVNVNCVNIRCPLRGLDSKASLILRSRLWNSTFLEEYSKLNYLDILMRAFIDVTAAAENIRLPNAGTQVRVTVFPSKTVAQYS
T1 sequence (P16144 28-710 partner limits assumed): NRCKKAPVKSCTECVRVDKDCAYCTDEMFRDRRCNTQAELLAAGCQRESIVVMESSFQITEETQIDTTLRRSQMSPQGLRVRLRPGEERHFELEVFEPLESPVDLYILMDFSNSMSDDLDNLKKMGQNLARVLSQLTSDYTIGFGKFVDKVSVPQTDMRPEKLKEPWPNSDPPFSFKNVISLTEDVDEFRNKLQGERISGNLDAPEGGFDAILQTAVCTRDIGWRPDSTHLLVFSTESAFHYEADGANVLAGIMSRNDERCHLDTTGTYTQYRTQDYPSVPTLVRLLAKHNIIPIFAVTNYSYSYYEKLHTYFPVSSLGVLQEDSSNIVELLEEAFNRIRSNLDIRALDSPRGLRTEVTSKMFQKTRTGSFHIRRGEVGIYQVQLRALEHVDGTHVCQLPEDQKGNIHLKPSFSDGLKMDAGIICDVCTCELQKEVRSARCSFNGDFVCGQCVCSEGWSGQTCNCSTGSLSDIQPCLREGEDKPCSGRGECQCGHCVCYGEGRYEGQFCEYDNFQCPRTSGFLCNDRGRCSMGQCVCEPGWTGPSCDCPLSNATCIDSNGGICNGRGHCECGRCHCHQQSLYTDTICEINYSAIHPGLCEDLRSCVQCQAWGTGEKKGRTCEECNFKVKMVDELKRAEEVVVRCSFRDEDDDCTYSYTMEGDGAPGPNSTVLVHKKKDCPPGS
Protocol: (§3) The affinity between these 18 polypeptides and integrin α6β4 was detected by microscale thermophoresis (MST) method as follows: • 1) Integrin α6β4 protein was dissolved to 800 nM, and polypeptide was dissolved to 100 μM. • 2) A RED-tris-NTA second-generation dye was diluted to 100 nM by using the MO series RED-tris-NTA protein labeling kit. • 3) 100 μl α6β4 protein was mixed with 50 μl dye and incubated at room temperature for 30 min, so that the α6β4 protein binds to the dye. • 4) 10 μl polypeptide was transferred into a PCR tube, and was diluted with PBST (containing 0.05% Tween 20) at a ratio of 1:1 to 16 gradients of concentrations. • 5) 3 μl protein/dye mixture was transferred into a PCR tube, 3 μl of 16 different concentrations of polypeptides was respectively added and mixed well. • 6) The mixture was absorbed by capillary and loaded on machine (instrument model Monolith NT.115) to assay, parameters were set as 80% LED/excitation power and medium MST power. • 7) MO. Affinity Analysis software was used to calculate the equilibrium dissociation constant KD between α6β4 protein and polypeptide by KD fitting mode.

integrin α6β4 [4] = molecular target: T2, integrin α6β4 (Homo sapiens, UniProt P16144+P23229); experiment: as above; format: binding; details: MST
T2 sequence (P23229 24-1050 limits assumed): T1 sequence (P23229 24-1050 limits assumed)
T2 sequence (P16144 28-710 partner limits assumed): T1 sequence (P16144 28-710 partner limits assumed)
Protocol: as §3

integrin α6β1 = integrin α6β1 (Homo sapiens, UniProt P05556+P23229); experiment: MST affinity to integrin α6β1; format: binding
Hep3B cells [5] = experiment: Flow cytometry affinity assay to Hep3B cells that do not express integrin α6; format: cell-based, human; details: FITC flow cytometry; Hep3B does not express integrin α6
Protocol: as §1, §2

[6] = system: tumor cells with high integrin α6 expression (HCCLM3, Huh-7, S18, MDA-MB-231; also HT29, KYSE30, SW620, SW1990 for RD2); experiment: Affinity of RD/RD2 to tumor cells with high integrin α6 expression by flow cytometry; format: cell-based, human; details: FITC probes, 37° C., 2 hours
Protocol: as §1, §2

integrin α6β4 [7] = molecular target: T3, integrin α6β4 (Homo sapiens, UniProt P23229); experiment: Affinity between polypeptide mutants and integrin α6β4 by microscale thermophoresis (MST); format: binding
T3 sequence (P23229 24-938 limits assumed): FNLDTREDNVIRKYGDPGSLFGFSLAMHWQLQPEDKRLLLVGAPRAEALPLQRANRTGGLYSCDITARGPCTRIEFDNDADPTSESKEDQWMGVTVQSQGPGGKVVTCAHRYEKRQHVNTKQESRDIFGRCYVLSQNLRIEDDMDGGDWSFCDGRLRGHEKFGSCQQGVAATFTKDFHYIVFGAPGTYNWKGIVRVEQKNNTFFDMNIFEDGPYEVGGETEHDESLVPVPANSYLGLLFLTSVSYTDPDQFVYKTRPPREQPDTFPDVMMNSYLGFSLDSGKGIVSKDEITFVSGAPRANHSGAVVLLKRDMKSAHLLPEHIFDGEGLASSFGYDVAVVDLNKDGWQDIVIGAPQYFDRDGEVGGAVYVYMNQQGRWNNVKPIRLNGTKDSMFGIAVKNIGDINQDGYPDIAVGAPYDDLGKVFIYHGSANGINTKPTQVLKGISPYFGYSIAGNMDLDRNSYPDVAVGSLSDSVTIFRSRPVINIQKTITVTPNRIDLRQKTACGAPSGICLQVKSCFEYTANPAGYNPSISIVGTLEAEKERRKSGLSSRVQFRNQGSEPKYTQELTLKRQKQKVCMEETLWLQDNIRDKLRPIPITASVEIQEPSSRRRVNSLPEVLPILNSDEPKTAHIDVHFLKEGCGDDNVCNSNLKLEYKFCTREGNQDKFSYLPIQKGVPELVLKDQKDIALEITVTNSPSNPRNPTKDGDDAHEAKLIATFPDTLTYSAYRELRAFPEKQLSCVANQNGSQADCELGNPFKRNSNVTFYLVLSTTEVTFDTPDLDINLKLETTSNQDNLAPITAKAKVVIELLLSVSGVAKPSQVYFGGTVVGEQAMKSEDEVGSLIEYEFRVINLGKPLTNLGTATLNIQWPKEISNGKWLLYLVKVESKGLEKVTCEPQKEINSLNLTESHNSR
T3 sequence (P23229 942-1050 limits assumed): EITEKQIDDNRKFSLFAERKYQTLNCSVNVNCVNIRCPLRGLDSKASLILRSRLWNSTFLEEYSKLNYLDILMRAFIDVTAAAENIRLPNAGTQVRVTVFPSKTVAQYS
T3 sequence (P16144 28-710 partner limits assumed): T1 sequence (P16144 28-710 partner limits assumed)
Protocol: as §3

[8] = integrin α6β4, determination 1, read-out: KD (um) 1
[9] = integrin α6β4, determination 3, read-out: KD (um) 3
[10] = integrin α6β4, mean of 3, read-out: KD Mean value (μm)
[11] = integrin α6β4, determination 2, read-out: KD (um) 2

Sequence of integrin α6β1 (P05556 21-728 partner limits assumed, one chain of several): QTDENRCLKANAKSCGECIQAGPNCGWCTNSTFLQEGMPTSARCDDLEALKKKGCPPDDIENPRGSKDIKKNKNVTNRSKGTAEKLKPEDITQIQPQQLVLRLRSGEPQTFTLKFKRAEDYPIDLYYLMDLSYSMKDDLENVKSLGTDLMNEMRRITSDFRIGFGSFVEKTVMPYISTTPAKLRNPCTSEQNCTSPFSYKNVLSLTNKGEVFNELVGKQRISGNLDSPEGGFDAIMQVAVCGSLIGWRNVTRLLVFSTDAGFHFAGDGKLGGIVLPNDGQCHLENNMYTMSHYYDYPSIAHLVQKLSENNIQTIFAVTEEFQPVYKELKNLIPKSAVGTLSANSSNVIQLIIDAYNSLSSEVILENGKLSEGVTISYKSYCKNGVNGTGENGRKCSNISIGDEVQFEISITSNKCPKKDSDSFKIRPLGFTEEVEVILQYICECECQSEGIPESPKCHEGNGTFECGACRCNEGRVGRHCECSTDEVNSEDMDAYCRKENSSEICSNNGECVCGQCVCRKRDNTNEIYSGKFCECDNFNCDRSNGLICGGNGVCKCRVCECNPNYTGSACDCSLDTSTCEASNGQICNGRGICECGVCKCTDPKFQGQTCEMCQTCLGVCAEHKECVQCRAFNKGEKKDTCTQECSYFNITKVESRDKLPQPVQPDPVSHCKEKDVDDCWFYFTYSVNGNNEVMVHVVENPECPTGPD

Compound: (RWYD-PEG4)2-K-K-FITC (not fully specified) [FITC-labeled RWYD dimer]
- Affinity to tumor cells with high integrin α6 expression compared with RWYD-PEG4-K-FITC ([1]; HCCLM3, S18, HT29, Huh7, MDA-MB-231, KYSE30, SW620, SW1990): stronger affinity

Compound: CRWYDENAC-PEG4-K-FITC (CRWYDENAC[PEG4′]K-{FITC′}; disulfide 1-9 (inferred)) [reference compound] [listing 1 of 2 here]
- affinity to Hep3B cells (Hep3B cells [2]): consistent with Hep3B cells

Compound: N=C(N)NCCC[C@H](N)C(=O)N[C@@H](Cc1c[nH]c2ccccc12)C(=O)N[C@@H](Cc1ccc(O)cc1)C(=O)N[C@@H](CC(=O)O)C(=O)O [P15, RWYD] (H-RWYD-OH; N-terminus and C-terminus assumed)
- Affinity increase relative to CRWYDENAC (integrin α6β4 [3]; integrin α6β4): 327 times
- Affinity relative to RWY (integrin α6β4 [3]): 326.875
- Kd (integrin α6β4 [4]; [8]): 20 nM
- Kd (integrin α6β4 [4]; [9]): 26 nM
- Kd (integrin α6β4 [4]; [10]): 20 nM
- Kd (integrin α6β4 [4]; integrin α6β4, read-out: KD): 21.8 ± 3.86 nM
- Kd (integrin α6β1): 53.1 ± 28.7 nM

Compound: CRWYDENAC-PEG4-K-FITC (CRWYDENAC[PEG4′]K-{FITC′}; disulfide 1-9 (inferred)) [reference compound] [listing 2 of 2 here]
- Affinity to Hep3B cells, RD versus RWY (Hep3B cells [5]): consistent

Compound: RWYD-PEG4-K-FITC [RD] [listing 1 of 2 here]
- affinity to tumor cells [6]: stronger affinity to tumor cells with high integrin α6 expression than RWY
- affinity to Hep3B cells (Hep3B cells [2]): consistent with Hep3B cells

Compound: (RWYD-PEG4)2-K-K-FITC (not fully specified) [RD2]
- affinity to tumor cells [6]: stronger affinity to tumor cells with high integrin α6 expression

Compound: RWYD-PEG4-K-FITC [RD] [listing 2 of 2 here]
- Affinity to tumor cells with high integrin α6 expression compared with RWY ([1]; FITC flow cytometry, HCCLM3, Huh7, S18, MDA-MB-231, 37° C., 2 hours): stronger affinity
- Affinity to Hep3B cells, RD versus RWY (Hep3B cells [5]): consistent

Compound: (RWYD-PEG4)2-K-K-NOTA (not fully specified)
- Kd (integrin α6β4 [7]): 64.8 ± 28.2 nM
- affinity increase of RWYD-PEG4 dimer over RWYD-PEG4-K-NOTA (integrin α6β4 [7]; NOTA conjugates): about 10 times

Compound: C[C@H](NC(=O)[C@H](CCC(=O)O)NC(=O)[C@H](CC(=O)O)NC(=O)[C@H](Cc1ccc(O)cc1)NC(=O)[C@H](Cc1c[nH]c2ccccc12)NC(=O)[C@@H](N)CCCNC(=N)N)C(=O)O [P12, RWYDEA] (H-RWYDEA-OH; N-terminus and C-terminus assumed)
- Affinity relative to RWY (integrin α6β4 [3]): 2.20
- Kd (integrin α6β4 [4]; [8]): 5260 nM
- Kd (integrin α6β4 [4]; [11]): 2490 nM
- Kd (integrin α6β4 [4]; [9]): 1740 nM
- Kd (integrin α6β4 [4]; [10]): 3160 nM

Compound: C[C@H](NC(=O)[C@H](CC(N)=O)NC(=O)[C@H](C)NC(=O)[C@H](CC(=O)O)NC(=O)[C@H](Cc1ccc(O)cc1)NC(=O)[C@H](Cc1c[nH]c2ccccc12)NC(=O)[C@@H](N)CCCNC(=N)N)C(=O)O [P10, RWYDANA] (H-RWYDANA-OH; N-terminus and C-terminus assumed)
- Affinity relative to RWY (integrin α6β4 [3]): 0.23
- Kd (integrin α6β4 [4]; [8]): 62100 nM
- Kd (integrin α6β4 [4]; [11]): 17500 nM
- Kd (integrin α6β4 [4]; [9]): 12400 nM
- Kd (integrin α6β4 [4]; [10]): 30600 nM
